Experimental data from publication PMC5537347, “A short D-enantiomeric antimicrobial peptide with potent immunomodulatory and antibiofilm activity against multidrug-resistant Pseudomonas aeruginosa and Acinetobacter baumannii” (Scientific Reports, 2017).
Values after ≈ are worked out from the molar mass of the structure shown. Like-named read-outs stand apart in the source and are kept apart here.

Tests used:
[1] = tested on: P. aeruginosa and A. baumannii isolates
Source text: (§1) The broth microdilution technique was utilized to assess the MIC of designed peptides according to the guidelines of the Clinical and Laboratory Standards Institute (CLSI)[37].

[2] = tested on: colistin-resistant P. aeruginosa isolated from cystic fibrosis patients
Source text: as §1

[3] = tested on: human keratinocytes (HaCaT cells); assay: Cytotoxicity, MTS assay; details: for EC50: 24 h
Description: (§2) A significant limitation for translating AMPs into clinical applications is their toxicity to host (mammalian) cells. Herein, we evaluated the cytotoxic effects of our peptide constructs against murine macrophages (J774.1A) and human keratinocytes (HaCaT cells), via the MTS assay.
(§3) The peptides were assayed for potential in vitro toxicity against human keratinocytes (HaCaT) and murine macrophage cells (J774A.1), as described before, with the following modifications. Cells were treated with peptides at different concentrations for 24 hours. The therapeutic index of the peptides was calculated as the ratio of mammalian EC50 (the concentration of peptide that inhibited growth of 50% of the mammalian cells) to the MIC50 of peptides against bacteria.

[4] = tested on: murine macrophages (J774.1A); assay: Cytotoxicity, MTS assay; details: for EC50: 24 h
Description: as §2, §3

human red blood cells = assay: Hemolysis assay; format: cell-based; details: for HC50: red cells of human
Description: Next, we assessed the hemolytic activity of the peptides on human red blood cells (RBCs).
Peptides were assayed for hemolytic activity against human red blood cells, as described previously.

[5] = tested on: intracellular A. baumannii ATCC 19606; format: cell-based; details: ATCC 19606, 24 h, 8
Description: (§4) Figure 2 Intracellular antibacterial activity of peptides in infected murine macrophage cells (J774A.1). […] Statistical analysis was calculated using one-way ANOVA, with post hoc Tukey’s multiple comparisons test. P < 0.05 was considered significant. One asterisk (*) indicates significance from the negative control. Results are expressed as means from three biological replicates ± standard deviation.
(§5) In order to assess the peptides’ ability to kill intracellular bacteria, murine macrophages (J774A.1) were infected, as described in previous studies[31]–[33], [42], [48]–[51]. Briefly, J774A.1 cells were seeded and incubated as described above for the toxicity assessment. Following incubation, cells were infected with either P. aeruginosa PAO1 or A. baumannii ATCC 19606 (multiplicity of infection 100:1) in DMEM + 10% FBS for two hours. After infection, the wells were washed with 200 µL of media containing gentamicin (50 µg/ml) and further incubated for 30 minutes with gentamicin to kill extracellular bacteria. […] Medium alone was used as a negative control. After incubation, the media was aspirated and washed twice with PBS to remove any residual test agent. Next, 100 µL of PBS containing 0.01% triton X-100 was added to lyse the J774 cells. Subsequently, bacteria were diluted and plated on TSA plates. Plates were incubated at 37 °C for 16 hours. After incubation, bacteria were enumerated and analyzed. The experiment was repeated twice. The average percent reduction of bacterial growth for each treatment regimen has been reported.

[6] = tested on: intracellular P. aeruginosa PAO1; format: cell-based; details: PAO1, 24 h, 8
Description: as §4, §5

[7] = tested on: C. elegans strain glp-4;sek 1; assay: Toxicity of peptides in uninfected C. elegans; format: in vivo, Caenorhabditis elegans; details: worms grown four days with peptide; D-RR4 and colistin at 8 × MIC
Description: To test the efficacy of the synthetic peptides to protect against infections in vivo, we utilized a C. elegans model of bacterial infection. This model has been used extensively for early-stage evaluation of promising antimicrobials, [35], [36]. Initially, the lethal dose of D-RR4 against uninfected nematodes was determined.
(A) Evaluation of toxicity of peptides in Caenorhabditis elegans. C. elegans strain glp-4;sek 1 was grown for four days in the presence of peptides at different concentrations. Worms were monitored daily and the live worms were counted. Results are expressed as a Kaplan-Meier survival curve. (B) Evaluation of antimicrobial activity of peptides to reduce the bacterial CFU inside infected Caenorhabditis elegans. C. elegans strain glp-4; sek 1 were infected with P. aeruginosa PAO1, colistin-resistant P. aeruginosa 1109, or A. baumannii ATCC BAA-1605. […] After treatment, worms were lysed and bacteria were counted. One asterisk (*) indicates significant difference with the negative control. Two asterisks (**) indicates significant difference with the monotherapy treatment (P < 0.05). Results are expressed as means from three biological replicates ± standard deviation. (C) Efficacy of peptides in a Caenorhabditis elegans model of bacterial infection. […] Worms were monitored daily and the live worms were counted. Results are expressed as a Kaplan-Meier survival curve. C. elegans receiving no treatment served as a negative control.

A. baumannii = format: cell-based
P. aeruginosa PAO1 [8] = assay: Inner (cytoplasmic) membrane permeabilization assay (propidium iodide); format: cell-based; details: D-RR4 5 × and 10 × MIC, LL-37 10 × MIC
Description: Damage of the bacterial inner (cytoplasmic) membrane by peptides was monitored by measuring the fluorescence intensity of P. aeruginosa PAO1 combined with propidium iodide and then subsequently treated with D-RR4.
Damage of the bacterial inner (cytoplasmic) membrane after exposure to peptides was evaluated using propidium iodide, as described elsewhere[47].
Data are presented as means ± standard error of the means
indicated by propidium iodide fluorescence.
Each experiment was performed in duplicate, and the
values represent means ± standard deviation.

P. aeruginosa PAO1 [9] = assay: MIC after treatment with proteases; format: cell-based; details: 50 mM Tris-HCl pH 7.4, 37 °C, four hours
Description: To examine the ability of peptides to resist proteolytic digestion by mammalian and bacterial proteases, RR4 and D-RR4 were incubated with trypsin or proteinase K at a molar ratio of 500: 1 (peptide: enzyme), respectively, in digestion buffer (50 mM Tris–HCl, pH 7.4) at 37 °C for four hours, as described previously.

[10] = tested on: A. baumannii ATCC BAA-1605 biofilm; assay: Disruption of established biofilms, microtiter dish crystal violet assay; format: cell-based; details: mature (24 hour) biofilm
Description: (§6) Figure 1 Efficacy of peptides on established biofilms of P. aeruginosa PAO1 and A. baumannii ATCC BAA-1605. […] After incubation, wells were washed and biofilms were stained with 0.5% (w/v) crystal violet for 30 minutes. The dye was solubilized with ethanol (95%) and the optical density (595 nm) of the biofilm mass was measured. Experiments were repeated twice independently and the average values are reported.
(§7) To examine the peptides’ ability to disrupt bacterial biofilms, the microtiter dish biofilm formation assay was employed[41]–[43].

[11] = tested on: P. aeruginosa PAO1 biofilm; assay: as above; format: cell-based; details: for biofilm mass disrupted: mature (24 hour) biofilm, 24 hours at 37 °C, crystal violet OD 595 nm
Description: as §6, §7

[12] = colistin-resistant isolated from cystic fibrosis patients
[13] = colistin-resistant isolates of Table 3

CC[C@@H](C)[C@@H](NC(=O)[C@@H](CCCNC(=N)N)NC(=O)[C@@H](CCCNC(=N)N)NC(=O)[C@@H](CC(C)C)NC(=O)[C@@H](Cc1c[nH]c2ccccc12)NC(=O)[C@@H](C)NC(=O)[C@@H](CCCCN)NC(=O)[C@H](NC(=O)[C@@H](CCCNC(=N)N)NC(=O)[C@@H](CCCNC(=N)N)NC(=O)[C@@H](CC(C)C)NC(=O)[C@H](N)Cc1c[nH]c2ccccc12)[C@H](C)CC)C(=O)N[C@H](CCCCN)C(=O)N[C@H](C)C(N)=O [D-RR4]
MIC50 [1]: 2 µM (≈ 3.73 µg/mL) | MIC90 [1]: 4 µM (≈ 7.46 µg/mL) | MIC against all tested bacterial strains [1]: 2 to 8 µM | MIC50 [2, 12]: 4 µM (≈ 7.46 µg/mL) | MIC90 [2, 12]: 16 µM (≈ 29.8 µg/mL) | EC50 [3]: 64 µM | Therapeutic index (TI) ([3]; EC50 (HaCaT) over MIC50, 512 µM used where no cytotoxicity at […]): 32 | EC50 [4]: 64 µM | Therapeutic index (TI) ([4]; EC50 (J774.1) over MIC50, 512 µM used where no cytotoxicity at […]): 32 | Therapeutic index (TI) RBCs (human red blood cells; HC50 over MIC50): 128 | HC50 (human red blood cells): 256 µM | intracellular bacteria killed [5]: 100.00% ± 0.00 | intracellular bacteria killed [6]: 96.00% ± 1.15 | toxicity to uninfected worms [7]: not toxic

CC[C@H](C)[C@H](NC(=O)[C@H](CCCCN)NC(=O)[C@H](CCC(=O)O)NC(=O)[C@H](CCCCN)NC(=O)[C@H](CO)NC(=O)[C@H](CCCCN)NC(=O)[C@H](CCCNC(=N)N)NC(=O)[C@H](Cc1ccccc1)NC(=O)[C@H](Cc1ccccc1)NC(=O)[C@H](CC(=O)O)NC(=O)CNC(=O)[C@H](CC(C)C)NC(=O)[C@@H](N)CC(C)C)C(=O)NCC(=O)N[C@@H](CCCCN)C(=O)N[C@@H](CCC(=O)O)C(=O)N[C@@H](Cc1ccccc1)C(=O)N[C@@H](CCCCN)C(=O)N[C@@H](CCCNC(=N)N)C(=O)N[C@H](C(=O)N[C@H](C(=O)N[C@@H](CCC(N)=O)C(=O)N[C@@H](CCCNC(=N)N)C(=O)N[C@H](C(=O)N[C@@H](CCCCN)C(=O)N[C@@H](CC(=O)O)C(=O)N[C@@H](Cc1ccccc1)C(=O)N[C@@H](CC(C)C)C(=O)N[C@@H](CCCNC(=N)N)C(=O)N[C@@H](CC(N)=O)C(=O)N[C@@H](CC(C)C)C(=O)N[C@H](C(=O)N1CCC[C@H]1C(=O)N[C@@H](CCCNC(=N)N)C(=O)N[C@H](C(=O)N[C@@H](CCC(=O)O)C(=O)N[C@@H](CO)C(=O)O)[C@@H](C)O)C(C)C)[C@@H](C)CC)C(C)C)[C@@H](C)CC [LL-37, reference compound]
MIC (A. baumannii; strain ATCC 19606): 2 µM (≈ 8.99 µg/mL) | MIC (A. baumannii; strain ATCC BAA-747): 8 µM (≈ 35.9 µg/mL) | MIC (A. baumannii; strain ATCC BAA-1605): 4 µM (≈ 18 µg/mL) | MIC (A. baumannii; strain NR-9667): 4 µM (≈ 18 µg/mL) | MIC (A. baumannii; strain NR-13374): 4 µM (≈ 18 µg/mL) | MIC (A. baumannii; strain NR-13375): 4 µM (≈ 18 µg/mL) | MIC (A. baumannii; strain NR-13382): 4 µM (≈ 18 µg/mL) | MIC (A. baumannii; strain NR-17777): 4 µM (≈ 18 µg/mL) | MIC (A. baumannii; strain NR-17778): 4 µM (≈ 18 µg/mL) | MIC (A. baumannii; strain NR-17780): 4 µM (≈ 18 µg/mL) | MIC (A. baumannii; strain NR-17783): 4 µM (≈ 18 µg/mL) | MIC (A. baumannii; strain NR-17784): 4 µM (≈ 18 µg/mL) | MIC (A. baumannii; strain NR-17785): 4 µM (≈ 18 µg/mL) | MIC (A. baumannii; strain NR-17786): 4 µM (≈ 18 µg/mL) | MIC (A. baumannii; strain NR-19298): 2 µM (≈ 8.99 µg/mL) | MIC (A. baumannii; strain NR-19299): 8 µM (≈ 35.9 µg/mL) | MIC50 ([1]; MIC that inhibited growth of 50% of all isolates (Table 2)): 4 µM (≈ 18 µg/mL) | MIC90 ([1]; MIC that inhibited growth of 90% of all isolates (Table 2)): 32 µM (≈ 144 µg/mL) | MIC50 [2, 13]: 64 µM (≈ 288 µg/mL) | MIC90 [2, 13]: >128 µM | MIC ([2]; strain 1015): >128 µM | MIC ([2]; strain 1016): >128 µM | MIC ([2]; strain 1017): >128 µM | MIC ([2]; strain 1020): 32 µM (≈ 144 µg/mL) | MIC ([2]; strain 1109): 64 µM (≈ 288 µg/mL) | MIC ([2]; strain 1125): 128 µM (≈ 575 µg/mL) | MIC ([2]; strain 1131): 16 µM (≈ 71.9 µg/mL) | MIC ([2]; strain 1133): 32 µM (≈ 144 µg/mL) | MIC ([2]; strain 1571): 16 µM (≈ 71.9 µg/mL) | MIC ([2]; strain 1603): 32 µM (≈ 144 µg/mL) | MIC ([2]; strain 16011): >128 µM | propidium iodide fluorescence (inner membrane damage) (P. aeruginosa PAO1 [8]): rapid and significant increase in fluorescence

CC[C@H](C)[C@H](NC(=O)[C@H](CCCNC(=N)N)NC(=O)[C@H](CCCNC(=N)N)NC(=O)[C@H](CC(C)C)NC(=O)[C@H](Cc1c[nH]c2ccccc12)NC(=O)[C@H](C)NC(=O)[C@H](CCCCN)NC(=O)[C@@H](NC(=O)[C@H](CCCNC(=N)N)NC(=O)[C@H](CCCNC(=N)N)NC(=O)[C@H](CC(C)C)NC(=O)[C@@H](N)Cc1c[nH]c2ccccc12)[C@@H](C)CC)C(=O)N[C@@H](CCCCN)C(=O)N[C@@H](C)C(=O)O [RR4]
MIC50 [1]: 4 µM (≈ 7.47 µg/mL) | MIC90 [1]: 8 µM (≈ 14.9 µg/mL) | improvement in the MIC over RR ([1]; MIC50 and MIC90): 16 fold | MIC50 [2, 12]: 8 µM (≈ 14.9 µg/mL) | MIC90 [2, 12]: 32 µM (≈ 59.7 µg/mL) | MIC (P. aeruginosa PAO1 [9]; after Proteinase K 1:500 (peptide:enzyme 500:1)): > 64 µM | MIC (P. aeruginosa PAO1 [9]; after Trypsin 1:500 (peptide:enzyme 500:1)): > 64 µM | EC50 [3]: 128 µM | EC50 [4]: 64 µM | Therapeutic index (TI) RBCs (human red blood cells): 64 | HC50 (human red blood cells): 256 µM | biofilm-disrupting activity [10]: concentration-dependent activity | biofilm mass reduced ([11]; 0.5× to 1 × MIC, respectively): 20–35% | biofilm mass disrupted ([11]; 4 × MIC): more than 31% | biofilm mass disrupted ([11]; 8 × MIC): > 39% | biofilm mass disrupted ([11]; 16 × MIC): > 41% | biofilm mass disrupted ([11]; 32 × MIC): > 61% | intracellular bacteria killed [5]: 25.00% ± 8.90 | intracellular bacteria killed [6]: 14.60% ± 5.50
